Results reported in patent US11612580B2, “Compositions for inhibiting 3′ repair exonuclease 2 and methods of screening for such compositions” (THE BOARD OF REGENTS OF THE UNIVERSITY OF TEXAS SYSTEM, priority 2017, dated 2023).

How the values were obtained:
msh2^−/− cells = test: puro(A)10 polymerase slippage assay, puromycin resistant colonies; type: cell-based, mouse; conditions: msh2^−/− cells with puro(A)10 reporter; 10 μM TREX2 inhibitor with puromycin; colonies counted about day 10; DMSO versus compounds p<0.02 (FIGS. 8B, 8C)
[1] = tested on: mouse embryonic stem (ES) cells; test: reduction of mutations in mouse embryonic stem (ES) cells; type: cell-based; conditions: hits from Chembridge Diverset screen
Text: Assays as described here were used to screen a Chembridge Diverset library (30,000 compounds). […] These small molecules are: 4-benzoyl-2-methyphenyl (2-nitrophenoxy) acetate; N-benzyl-2-([bis(furan-2-yl)-1,2,4-triazin-3-yl] sulfanyl) acetamide; 6-(benzylcarbamoyl)-1-methycyclohex-3-ene-1-carboxylic acid; 8-(phenylamino)naphthalene-1-sulfonic acid; and benzyl 6-(furan-2-yl)-3-methyl-4-oxo-4,5,6,7-tetrahydro-1H-indole-2-carboxylate. […] TX2Is appear to be nontoxic to cells and TREX2-deletion was asymptomatic for >50% of life span.

Structure (SMILES)	spontaneous polymerase slippage (fraction of puromycin resistant cells) (msh2^−/− cells)	mutations in mouse embryonic stem (ES) cells [1]
Cc1cc(C(=O)c2ccccc2)ccc1OC(=O)COc1ccccc1[N+](=O)[O-] [Compound 1, 4-benzoyl-2-methyphenyl (2-nitrophenoxy) acetate]	reduce spontaneous polymerase slippage	reduce a range of mutations
O=S(=O)(O)c1cccc2cccc(Nc3ccccc3)c12 [Compound 6, 8-(phenylamino)naphthalene-1-sulfonic acid]	reduce spontaneous polymerase slippage	reduce a range of mutations
O=C(CSc1nnc(-c2ccco2)c(-c2ccco2)n1)NCc1ccccc1 [Compound 10, N-benzyl-2-([bis(furan-2-yl)-1,2,4-triazin-3-yl]sulfanyl) acetamide]	reduce spontaneous polymerase slippage	reduce a range of mutations
CC1(C(=O)O)CC=CCC1C(=O)NCc1ccccc1 (stereo not drawn) [Compound 11, 6-(benzylcarbamoyl)-1-methycyclohex-3-ene-1-carboxylic acid]	reduce spontaneous polymerase slippage	reduce a range of mutations
Cc1c(C(=O)OCc2ccccc2)[nH]c2c1C(=O)CC(c1ccco1)C2 (stereo not drawn) [benzyl 6-(furan-2-yl)-3-methyl-4-oxo-4,5,6,7-tetrahydro-1H-indole-2-carboxylate]	–	reduce a range of mutations
